Results on three compounds are retold here after patent publication US7018996B2, “Antibiotics AW998A, AW998B, AW998C and AW998D” (Wyeth Holdings Corporation, priority 2002, dated 2006).

In brackets after ≈: the same amount, converted by molar mass. Where two headings read alike, the source gives them in different places. Bridge positions count the residues as written; N and C are the ends. Square brackets hold non-standard residues; d marks the D form. Peptide text beside a SMILES is read from it. * marks the point of attachment. Tetradecenoyl(2E,13-Me) = CC(C)CCCCCCCCC/C=C/C(=O)*; X1 = CC(C)CCCCCCCC/C=C/C(=O)*; Pip = O=C(O)[CH]1CCCCN1; Dap = NC[CH](N)C(=O)O Some results are limits rather than exact numbers.

Common to all, as to assay type: cell-based
One experiment deals with S. aureus GC 1131 (MRSA). The experiment can be described thus: MIC, broth dilution, S. aureus GC 1131 (MRSA). The conditions noted are these: Staphylococcus aureus, 18 hours at 35° C., read-out: Antimicrobial Activity (MIC). The method, then: (§1) The minimum inhibitory concentration (MIC), the lowest concentration of the antibiotic which inhibits growth of the test organism, is determined by the broth dilution method using Muller-Hinton II […] (Baltimore Biological Laboratories) following the recommendations of the National Committee for Clinical Laboratory Standards [Methods for dilution antimicrobial susceptibility tests for bacteria that grow aerobically, approved standard M7-A2, National Committee for Clinical Laboratory Standards, Villanova, Pa.].
(§2) An inoculum level of 5×10^5 CFU/mL, and a range of antibiotic concentrations (64–0.06 μg/mL) is used. The MIC is determined after the microtiter plates are incubated for 18 hours at 35° C. in an ambient air incubator. The test organisms include a spectrum of Gram-positive bacteria comprised of Staphylococcus sp., Streptococcus sp. and Enterococcus sp.
(§3) The in vitro antibacterial activity of AW998A, AW998B, AW998C and AW998D is determined against a spectrum of Gram-positive and Gram-negative bacteria by a standard broth dilution method. Serial dilution of the compounds are made in Mueller-Hinton broth and inoculated with a bacterial suspension. The lowest concentration of compound that inhibited the growth of a bacterial strain after 18 hours of incubation at 35° C. is reported as the minimal inhibitory concentration (MIC) for that strain.

The subject of experiment [1] is S. aureus GC 4543 (Smith). The experiment can be described thus: MIC, broth dilution, S. aureus GC 4543 (Smith). The conditions noted are these: Staphylococcus aureus, 18 hours at 35° C., read-out: Antimicrobial Activity (MIC). The procedure:
as §1, §2, §3
(Dilution methods test growth across graded concentrations, often in twofold steps.)

The next experiment deals with S. aureus GC 2216 (ATCC). The experiment can be described thus: MIC, broth dilution, S. aureus GC 2216 (ATCC). The conditions noted are these: Staphylococcus aureus, 18 hours at 35° C., read-out: Antimicrobial Activity (MIC). The procedure:
as §1, §2, §3

Experiment [2] deals with E. faecalis GC 4555 (ATCC). The experiment in a line: MIC, broth dilution, E. faecalis GC 4555 (ATCC). The conditions noted are these: Enterococcus faecalis, 18 hours at 35° C., read-out: Antimicrobial Activity (MIC). The method, then: as §1, §2, §3
Experiment [3] has as its system E. faecalis GC 2242 (VRE). The experiment in a line: MIC, broth dilution, E. faecalis GC 2242 (VRE). The conditions noted are these: Enterococcus faecalis, 18 hours at 35° C., read-out: Antimicrobial Activity (MIC). The procedure:
as §1, §2, §3

The subject of another experiment is S. pneumoniae GC 1894. The experiment can be described thus: MIC, broth dilution, S. pneumoniae GC 1894. The conditions noted are these: Streptococcus pneumoniae, GC1894, 18 h, 18 hours at 35° C., read-out: Antimicrobial Activity (MIC). The method, then: as §1, §2, §3
Experiment [4] concerns C. albicans GC 3066 (Yeast). The experiment can be described thus: MIC, broth dilution, C. albicans GC 3066 (Yeast). The conditions noted are these: Candida albicans, read-out: Antimicrobial Activity (MIC).
For another experiment, the system named is E. coli GC 4559 (wt). The experiment in a line: MIC, broth dilution, E. coli GC 4559 (wt). The conditions noted are these: Escherichia coli, read-out: Antimicrobial Activity (MIC). The procedure:
as §1, §2
(§4) The test organisms also include a spectrum of Gram-negative bacteria comprised of E. coli GC, M. catarrhalis and H. influenzae.
as §3

A further experiment has as its system E.coil GC 4560 (imp). The experiment in a line: MIC, broth dilution, E.coil GC 4560 (imp). The conditions noted are these: Escherichia coli, 18 h, read-out: Antimicrobial Activity (MIC). The procedure: as §1, §2, §4, §3
Experiment [5] concerns B. subtilis GC 6344 (168). The experiment can be described thus: MIC, broth dilution, B. subtilis GC 6344 (168). The conditions noted are these: Bacillus subtilis, 18 hours at 35° C., read-out: Antimicrobial Activity (MIC). The method, then: as §1, §2, §3
For experiment [6], the system named is M. catarrhalis GC 6907* (clinical). The experiment can be described thus: MIC, broth dilution, M. catarrhalis GC 6907 (clinical). The conditions noted are these: Moraxella catarrhalis, read-out: Antimicrobial Activity (MIC). The method, then:
as §1, §2, §4, §3

Experiment [7] has as its system H. influenzae GC 6896 <> (ATTC). The experiment can be described thus: MIC, broth dilution, H. influenzae GC 6896 (ATTC). The conditions noted are these: Haemophilus influenzae, read-out: Antimicrobial Activity (MIC). The procedure: as §1, §2, §4, §3
The mark [8] stands for this setting: S. pneumoniae GC 1894* (5% LHB).

As to `CCC(C)C1NC(=O)C(C(C)O)NC(=O)CNC(=O)C(CC(=O)O)NC(=O)CNC(=O)C(CC(=O)O)NC(=O)CNC(=O)C2CCCCN2C(=O)C(NC(=O)C(CC(=O)O)NC(=O)/C=C/CCCCCCCCCC(C)C)CNC(=O)C2CCCN2C1=O` (stereo not drawn) [AW998A] ({Tetradecenoyl(2E,13-Me)}-D[Dap][Pip]GDGDGTIP; lactam 2-C; configuration not given here), the MIC is 16 µg/mL (≈ 12.8 µM) in the experiment with S. aureus GC 1131 (MRSA); 8 µg/mL (≈ 6.41 µM) in experiment [1]; 8 µg/mL (≈ 6.41 µM) in the experiment on S. aureus GC 2216 (ATCC); 32 µg/mL (≈ 25.7 µM) in [2]; 64 µg/mL (≈ 51.3 µM) in experiment [3]; 4 µg/mL (≈ 3.21 µM) with S. pneumoniae GC 1894 (setting [8]). Also, the MIC in the experiment with S. pneumoniae GC 1894 (S. pneumoniae GC 1894+ (THY)) was 2 µg/mL (≈ 1.6 µM); in experiment [4] (C. albicans GC 3066 (Yeast), 18 hours at 35° C.), 128 µg/mL (≈ 103 µM); in the experiment on E. coli GC 4559 (wt) (E. coli GC 4559 (wt), 18 hours at 35° C.), over 128 µg/mL; in the experiment on E.coil GC 4560 (imp), 32 µg/mL (≈ 25.7 µM); in [5] it was 32 µg/mL (≈ 25.7 µM); in [6] (M. catarrhalis GC 6907* (clinical), 18 hours at 35° C.), over 128 µg/mL. In addition, the MIC in experiment [7] (H. influenzae GC 6896 <> (ATTC), 18 hours at 35° C.) was over 128 µg/mL.

Regarding `CCC(C)C1NC(=O)C(C(C)O)NC(=O)CNC(=O)C(CC(=O)O)NC(=O)CNC(=O)C(CC(=O)O)NC(=O)CNC(=O)C2CCCCN2C(=O)C(NC(=O)C(CC(=O)O)NC(=O)/C=C/CCCCCCCCC(C)C)CNC(=O)C2CCCN2C1=O` (stereo not drawn) [AW998C] (X1-D[Dap][Pip]GDGDGTIP; lactam 2-C; configuration not given here), the MIC in the experiment with S. aureus GC 1131 (MRSA) was 128 µg/mL (≈ 104 µM); in [1], 64 µg/mL (≈ 51.9 µM); in the experiment on S. aureus GC 2216 (ATCC) it was 64 µg/mL (≈ 51.9 µM); in experiment [2], 128 µg/mL (≈ 104 µM); in experiment [3], 128 µg/mL (≈ 104 µM); in the experiment on S. pneumoniae GC 1894 (setting [8]), 8 µg/mL (≈ 6.49 µM). For the same compound, the MIC was 64 µg/mL (≈ 51.9 µM) with S. pneumoniae GC 1894 (S. pneumoniae GC 1894+ (THY)); over 128 µg/mL in [4] (18 h); over 128 µg/mL with E. coli GC 4559 (wt) (18 h); over 128 µg/mL in the experiment with E.coil GC 4560 (imp); 128 µg/mL (≈ 104 µM) in experiment [5]; over 128 µg/mL in [6] (18 h). The MIC in experiment [7] (18 h) was over 128 µg/mL.

With `CC(C)CCCCCCCCC/C=C/C(=O)NC(CC(=O)O)C(=O)NC1CNC(=O)C2CCCN2C(=O)C(C(C)C)NC(=O)C(C(C)O)NC(=O)CNC(=O)C(CC(=O)O)NC(=O)CNC(=O)C(CC(=O)O)NC(=O)CNC(=O)C2CCCCN2C1=O` (stereo not drawn) [AW998D] ({Tetradecenoyl(2E,13-Me)}-D[Dap][Pip]GDGDGTVP; lactam 2-C; configuration not given here), the MIC is 128 µg/mL (≈ 104 µM) with S. aureus GC 1131 (MRSA); 128 µg/mL (≈ 104 µM) in experiment [1]; 128 µg/mL (≈ 104 µM) in the experiment with S. aureus GC 2216 (ATCC); 128 µg/mL (≈ 104 µM) in experiment [2]; 128 µg/mL (≈ 104 µM) in experiment [3]; 16 µg/mL (≈ 13 µM) with S. pneumoniae GC 1894 (setting [8]). The MIC is 128 µg/mL (≈ 104 µM) in the experiment on S. pneumoniae GC 1894 (S. pneumoniae GC 1894+ (THY)); over 128 µg/mL in experiment [4] (18 h); over 128 µg/mL in the experiment with E. coli GC 4559 (wt) (18 h); over 128 µg/mL in the experiment with E.coil GC 4560 (imp); 128 µg/mL (≈ 104 µM) in experiment [5]; over 128 µg/mL in [6] (18 h). For the same compound, the MIC in experiment [7] (18 h) is over 128 µg/mL.
